# From ChEMBL document CHEMBL1137544, “Syntheses of immunomodulating androstanes and stigmastanes: comparison of their TNF-alpha inhibitory activity” (Bioorg Med Chem, 2007)
# pIC50: −log10 of the molar value. Activity calls are given as the source filed them. The calls are words filed in the database; no cut-off is given here.
# Tests used:
# J774.A1 [1] = assay: Inhibition of LPS-induced TNFalpha production in mouse J774A.1 cells; format: functional, cell-based
# J774.A1 [2] = assay: Cytotoxicity against mouse J774A.1 cells; format: cell-based
Structure (SMILES),pIC50 (J774.A1 [1]),also measured
C[C@]12CC[C@H]3[C@@H](CC(=O)[C@@]4(O)C[C@@H](Br)CC[C@]34C)[C@@H]1CCC(=O)O2,,Activity (J774.A1 [1]): inactive
CC[C@@H](C(C)C)[C@H](O)[C@@H](O)[C@@H](C)[C@H]1CC[C@H]2[C@@H]3CC(=O)[C@@]4(O)C[C@@H](O)CC[C@]4(C)[C@H]3CC[C@]12C,7.74,
C[C@]12CC[C@H](O)CC1=CC[C@@H]1[C@@H]2CC[C@]2(C)C(=O)CC[C@@H]12 [PRASTERONE],6.85,
CC[C@@H](C(C)C)[C@H](O)[C@@H](O)[C@@H](C)[C@H]1CC[C@H]2[C@@H]3CC(=O)[C@@]4(O)C[C@@H](F)CC[C@]4(C)[C@H]3CC[C@]12C,7.33,
CC[C@@H](C(C)C)[C@H](O)[C@@H](O)[C@@H](C)[C@H]1CC[C@H]2[C@@H]3CC=C4C[C@@H](F)CC[C@]4(C)[C@H]3CC[C@]12C,,Activity (J774.A1 [1]): inactive
C[C@]12CC[C@H]3[C@@H](CC(=O)[C@@]4(O)C[C@@H](Br)CC[C@]34C)[C@@H]1CCC2=O,6.87,
CC[C@@H](C(C)C)[C@H](O)[C@@H](O)[C@@H](C)[C@H]1CC[C@H]2[C@@H]3CC=C4C[C@@H](Cl)CC[C@]4(C)[C@H]3CC[C@]12C,,Activity (J774.A1 [1]): inactive
CC[C@@H](C(C)C)[C@@H](O)[C@H](O)[C@@H](C)[C@H]1CC[C@H]2[C@@H]3CC(=O)[C@@]4(O)C[C@@H](F)CC[C@]4(C)[C@H]3CC[C@]12C,,Activity (J774.A1 [2]): Toxic
CC[C@@H](C(C)C)[C@H](O)[C@@H](O)[C@@H](C)[C@H]1CC[C@H]2[C@@H]3CC=C4C[C@@H](O)CC[C@]4(C)[C@H]3CC[C@]12C,7.46,
CC[C@@H](C(C)C)[C@H](O)[C@@H](O)[C@@H](C)[C@H]1CC[C@H]2[C@@H]3CC(=O)[C@@]4(O)C[C@@H](Br)CC[C@]4(C)[C@H]3CC[C@]12C,7.42,
C[C@]12CC[C@H]3[C@@H](CC(=O)[C@@]4(O)C[C@@H](O)CC[C@]34C)[C@@H]1CCC2=O,6.96,
CC[C@@H](C(C)C)[C@@H](O)[C@H](O)[C@@H](C)[C@H]1CC[C@H]2[C@@H]3CC(=O)[C@@]4(O)C[C@@H](Br)CC[C@]4(C)[C@H]3CC[C@]12C,,Activity (J774.A1 [2]): Toxic
CC[C@@H](C(C)C)[C@H](O)[C@@H](O)[C@@H](C)[C@H]1CC[C@H]2[C@@H]3CC=C4C[C@@H](Br)CC[C@]4(C)[C@H]3CC[C@]12C,6.84,
C[C@@H]1C[C@H]2[C@@H]3CCC4=CC(=O)C=C[C@]4(C)[C@@]3(F)[C@@H](O)C[C@]2(C)[C@@]1(O)C(=O)CO [DEXAMETHASONE],7.32,
